In patent US20220304945A1, “METHODS OF TREATING METABOLIC SYNDROME RELATED CONDITIONS USING RETINOIC ACID RECEPTOR AGONISTS” (Cornell University, priority 2014, published 2022):
“Also recorded” adds a separate entry of the source.

How the values were obtained:
[1] = test system: HFD-fed C57/BL6 mice; assay: Acute administration (8 days) to HFD-fed mice: body weight, intake, random glucose, GTT, ITT; type: in vivo, mouse
Experimental: FIG. 31. Acute administration of Retinoic Acid Receptor β (RARβ) agonist AC261066 reverses high fat induced glucose intolerance and insulin resistance. A-C) Body weights, water and food intake of wild type C57/B16 male mice after 3 months of being fed either: a standard chow (13% Kcal/fat) diet (Wt Con, n=4), a high fat (45% Kcal/fat) diet (HFD, n=4) or 3 months of a HFD mice plus 8 days of administration of the RARβ agonist AC261066 (n=4) in their drinking water at a dose of 5.4 mg/Kg BW/day. On day 8 mice were tested for glucose intolerance and insulin resistance. D and E) Random glucose and glucose tolerance test (GTT) of mice described in A. F) Insulin tolerance test of mice described in A.
Metabolic Measurements-Glucose tolerance was performed using an intraperitoneal glucose tolerance test (GTT) as previously described (Trasino et al., Vitamin A Deficiency Causes Hyperglycemia and Loss of Pancreatic β-Cell Mass, J Biol Chem. 2014 Dec. 1. pii: jbc.M114.616763). […] Tail vein blood glucose was measured at 20, 40, 60 and 120 minutes after injection using a FreeStyle Lite Blood Glucose Monitoring System (Abbott Diabetes Care, Inc. Alameda, Calif.). To determine insulin secretion responses to glucose, serum fractions were isolated between 0-60 minutes post glucose injections and insulin concentrations were measured using an Ultrasensitive Insulin ELISA Kit (Alpco, Inc. Salem, N.H.). […]

[2] = test system: HF-fed and genetically obese mice; assay: Tissue triglyceride analysis and H and E staining of liver, pancreas, kidney, muscle, adipose tissue; type: in vivo, mouse
From the text: Mice, diet, and drug treatment. Dietary Obesity Studies: Wild type (wt) male C57/BL6 male mice were maintained on either a standard laboratory chow-fed diet (Con) with 13% kcal fat, (diet #5053, Lab Diet, Inc, St. Louis, Mo.) or a high fat, western style diet (HFD) with 45% kcals from fat, (diet #58126, Lab Diet, Inc., St. Louis, Mo.) for 4 months. One month after the start of the HFD treatment, the Con and HFD groups werefurther split into 3 additional groups for […] to: i) remain on either Con or HFD and the drinking water containing 1% DMSO; ii) Con or HFD and drinking water containing 3.0 mg/100 ml AC261066, a specific RARβ agonist in 1% DMSO, or iii) Con or HFD and drinking water containing 3.0 mg/100 ml of AC55649, another specific RARβ agonist in 1% DMSO. All mice remained on their diets for 4 months. […]
Tissue Triglyceride Analysis: Total tissue lipids were extracted from using the Folch method. […] Tissue triglycerides were determined enzymatically using Triglycerides Reagent kit (Invitrogen, Life Technologies, Carlsbad, Calif., USA) according to the manufacture's protocol. Tissue triglycerides were normalized to tissue protein concentrations and reported as mean±standard error of the mean (S.E.M) and P-values were calculated using one-way analysis of variance followed by Bonferroni multiple comparison test post-hoc analysis.

CCCCOCCOc1nc(-c2ccc(C(=O)O)c(F)c2)sc1C [AC261066]
random glucose levels ([1]; after 24 hours of administration): significant reductions
hyperglycemia (glucose intolerance) and insulin resistance ([1]; after 8 days of administration): reverses; also recorded: significant reductions
accumulation of liver, pancreas, kidney, muscle and adipose triglycerides [2]: reduces
